Tests used:
[1] = test system: gastric adenocarcinoma (SGC-7901) cells; assay: MTT antiproliferative assay, SGC-7901; assay type: cell-based, human; settings: Homo sapiens, SGC-7901, 24 h of drug exposure, mean±SD of 3 experiments
Description: (§1) In vitro antiproliferative activity against three human tumor cell lines, including gastric adenocarcinoma (SGC-7901), oral carcinoma (KB) and fibrosarcoma (HT-1080), was evaluated using the MTT assay with cis-platinum (Cpt) as the positive control.
(§2) The antiproliferative activity of the synthetic compounds was measured by 3-(4, 5- dimethylthiazol-2-yl)-2, 5-diphenyltetrazolium bromide (MTT) assay. Cells were seeded in 96-well plates (Corning, NY, USA) at a density of 8×10^3 per well. After 24 h of incubation, cells were treated with different concentrations (0.1, 0.3, 1, 3 and 10 μg/ml) of the EM-A dimers for the indicated time periods. Afterwards, MTT (Sigma, St. Louis, MO) solution [5.0 mg/ml in phosphate-buffered saline (PBS)] was added (20 μl/well) and incubated for another 4 h at 37°C. The purple formazan crystals were then dissolved in 100 μl dimethyl sulfoxide (DMSO). After 5 min, the plates were read on a plate microreader (TECANSPECTRA, Wetzlar, Germanay) at 490 nm. The IC50 values were obtained using the software of Dose–Effect Analysis with Microcomputers and were defined as concentration of drug causing 50% inhibition in absorbance compared with control cells. Assays were performed in triplicate from three independent experiments.

[2] = test system: oral carcinoma (KB) cells; assay: MTT antiproliferative assay, KB; assay type: cell-based, human; settings: Homo sapiens, KB, 24 h of drug exposure, mean±SD of 3 experiments
Description: as §1, §2

[3] = test system: fibrosarcoma (HT-1080) cells; assay: MTT antiproliferative assay, HT-1080; assay type: cell-based, human; settings: Homo sapiens, HT-1080, 24 h of drug exposure, mean±SD of 3 experiments
Description: as §1, §2

[4] = test system: normal mouse fibroblast cells (L929); assay: MTT assay, toxicity against normal fibroblasts L929; assay type: cell-based; settings: L929, 24 h of drug exposure
Description: as §2

Hela cells [5] = assay: Flow cytometry cell cycle analysis (PI), Hela; assay type: cell-based, human; settings: 1b 24 h
Description: (§3) To understand the mechanism driving the antiproliferative activity of the prepared compounds, we analyzed using flow cytometry the cell cycles of Hela and MCF-7 treated for 24h with the selected active compound 1b at 0.5, 1.0 and 2.0μM concentrations (Fig 2B). […] The percentage of apoptotic cells depended on the concentration of 1b.
(§4) Cells were dispensed in 25 ml culture bottle at a density of 5 ×10^5 per bottle. After 24 h incubation, they were treated with compound 1b at given concentrations for 24h. The cells were harvested by 0.05% trypsin (Sigma, St. Louis, MO), then collected by centrifugation, washed with PBS, and fixed with 10 ml ice-cold 70% ethanol at 4°C overnight. After washed with PBS, the cells were suspended in 1ml propidium iodide (PI; 50 mg/L; Sigma, St. Louis, MO) solution supplemented with 1 g/L RNase A (Sigma, St. Louis, MO). Finally, the samples were analyzed by FACScan flow cytometer (Becton Dickinson, Franklin, NJ, USA).

MCF-7 cells [6] = assay: Flow cytometry cell cycle analysis (PI), MCF-7; assay type: cell-based, human; settings: MCF-7, 1b 24 h
Description: as §3, §4

Hela cells [7] = assay: Annexin V-FITC/PI apoptosis analysis, Hela; assay type: cell-based, human; settings: 2.5 μM, 24 h (control 4.68%)
Description: (§5) The majority of cells (Hela, 88.44% and MCF-7 89.30%) in the control samples were viable and non-apoptotic. […] In addition, an increase in the Annexin V+PI+ population was also observed which indicates late apoptotic or dead cells.
(§6) Cell apoptosis was determined using AnnexinV-FITC/PI Assay Kit according to the manufacturers’ protocols. Briefly, cells were seeded in 6-well plates at a density of 1.2×10^5 (MCF-7) or 1.5×10^5 (HeLa) per well and incubated for 24 h. Then, cells were treated with 0, 0.5, 1.5 or 2.5 μM 1b for 24h. After washed with PBS twice, cells were re-suspended in 100 μL binding buffer containing 5 μL AnnexinV-FITC and 5 μL PI. Following 10 min of incubation, cells were detected by FACScan flow cytometer.

MCF-7 cells [8] = assay: Annexin V-FITC/PI apoptosis analysis, MCF-7; assay type: cell-based, human; settings: MCF-7, 2.5 μM, 24 h (control 3.28%)
Description: as §5, §6

Hela cells [9] = assay: Mitochondrial potential assay (Rhodamine 123), HeLa; assay type: cell-based, human; settings: 24 h
Description: Mitochondria play a key role in the process of apoptosis. After treatment with 1b for 24h and stained with Rhodamine 123, the mitochondrial membrane potential (Δψm) changes in HeLa and MCF-7 cells were observed by flow cytometer.
Cells were seeded in 6-well plates at a density of 0.8×10^5 (MCF-7) or 1.0×10^5 (HeLa) per well. After 24 h of incubation, cells were treated with 0, 0.5, 1.5 or 2.5 μM 1b for another 24h. Subsequently, cells were washed with PBS twice, incubated with 1 μg/mL Rhodamine 123 in 1 mL PBS at 37°C for 30 min, and analyzed by FACScan flow cytometer.

[10] = test system: Bax, Bcl-2, cyt c, Caspase-3 in HeLa cells; assay: Western blot analysis of apoptotic proteins, HeLa; assay type: cell-based, human; settings: 24 h
Description: (§7) Bax and Bcl-2 proteins are two key apoptosis regulators of Bcl-2 family that govern mitochondrial outer membrane permeabilization (MOMP). To investigate the effects of 1b on Bax and Bcl-2 expressions and its association with cell apoptosis and proliferation, HeLa and MCF-7 cells were treated with different concentration of 1b for 24h before western blot analysis (Fig 6). […] Treatment with 1b led to Δψm depolarization, MOMP enhancing and pro-apoptotic proteins release.
(§8) Cytochrome complex (cyt c) and Caspase-3 play important roles in the process of cell apoptosis. In our case, the effects of 1b on the expression of cyt c and Caspase-3 were examined by treatment of HeLa and MCF-7 cells with different concentration of 1b. […] Treatment with 1b promoted the translocation of cyt c from the mitochondria to cytoplasm. In addition, the amount of 17 kDa cleaved Caspase-3 increased, accompanying with the reducing of zymogen.
(§9) Cells were seeded in 75 mL culture flask at a density of 8 ×10^5 (MCF-7) or 1.2×10^6 (HeLa) and incubated for 24 h. Thereafter, cells were treated with 0, 0.5, 1.5 or 2.5 μM 1b for 24h and harvested by trypsin into the EP tubes.
(§10) For total protein extraction, the cell pellets were lysed in RIPA buffer (Beyotime) supplemented with PMSF on ice for 30 min. After centrifuging at 12000 g for 10 min at 4°C, the cell suspension was collected as the whole cell protein. Cytoplasmic proteins and mitochondrial proteins were extracted from cells using Cell Mitochondria Isolation Kit according to the instructions of manufacturer. The protein concentrations were quantified with BCA Protein Assay Kit (Beyotime) and a plate reader according to the manufacturer’s protocols.
(§11) For western blot analysis, equal protein lysates were separated by electrophoresis on 12% SDS-PAGE gels, and transferred onto PVDF membranes. After blocking with 5% non-fat milk in PBS for 2.5 h at room temperature, the membranes were incubated with primary antibody overnight at 4°C: Bax (1:2000), Bcl-2 (1:1000), Caspase-3 (1:500), Cytochrome c (1:500), and β-actin (1:3000). Then, the blots were washed three times for 10 min each in Tris-NaCl and incubated with secondary HRP-conjugated goat anti-mouse or anti-rabbit IgGs (1:6000 or 1:5000) for 2.5 h at 37°C. The interest proteins were visualized using ECL, and β-actin served as the internal control.

[11] = test system: Bax, Bcl-2, cyt c, Caspase-3 in MCF-7 cells; assay: Western blot analysis of apoptotic proteins, MCF-7; assay type: cell-based, human; settings: 24 h
Description: as §7, §8, §9, §10, §11

[12] = HeLa, 0.5, 1.5, 2.5 μM, vs control, dose-dependent, P<0.01
[13] = MCF-7, 0.5, 1.5, 2.5 μM, vs control, dose-dependent, P<0.01

Compound	IC50 [1]	IC50 [2]	IC50 [3]	IC50 [4]	percentage of SubG1 peaks (Hela cells [5]; highest concentration (control 2.28%))	percentage of G0/G1 peaks (Hela cells [5]; highest concentration (control 55%))	percentage of SubG1 peaks (MCF-7 cells [6]; highest concentration (control 3.62%))	percentage of G0/G1 peaks (MCF-7 cells [6]; highest concentration (control 61%))	early apoptotic cell population (lower right) (Hela cells [7])	early apoptotic cell population (lower right) (MCF-7 cells [8])	mitochondrial membrane potential (Rhodamine 123) (Hela cells [9]; 0.5 μM)	mitochondrial membrane potential (Rhodamine 123) (Hela cells [9]; 2.5 μM)	BCL-2 expression [10, 12]	Bax expression [10, 12]	amount of 17 kDa cleaved Caspase-3 ([10]; HeLa, 0.5 to 2.5 μM)	expression of cyt c in the cytoplasm ([10]; HeLa, concentration increased from 0.5 to 2.5 μM)	BCL-2 expression [11, 13]	Bax expression [11, 13]	amount of 17 kDa cleaved Caspase-3 ([11]; MCF-7, 0.5 to 2.5 μM)	expression of cyt c in the cytoplasm ([11]; MCF-7, concentration increased from 0.5 to 2.5 μM)
CCC1OC(=O)C(C)C(O)C(C)C(OC2OC(C)CC(N(C)CC=CCN(C)C3CC(C)OC(OC4C(C)C(OC5CC(C)(OC)C(O)C(C)O5)C(C)C(=O)OC(CC)C(C)(O)C(O)C(C)C(=NO)C(C)CC4(C)OC)C3O)C2O)C(C)(OC)CC(C)C(=NO)C(C)C(O)C1(C)O (centres unmarked) [Compound 1j]	30.6 ± 2.8 µM	26.4 ± 2.4 µM	23.7 ± 2.2 µM	> 100 µM																
CCC1OC(=O)C(C)C(OC2CC(C)(OC)C(O)C(C)O2)C(C)C(OC2OC(C)CC(N(C)CC=CCN(C)C3CC(C)OC(OC4C(C)C(OC5CC(C)(OC)C(O)C(C)O5)C(C)C(=O)OC(CC)C(C)(O)C(O)C(C)C(=O)C(C)CC4(C)OC)C3O)C2O)C(C)(OC)CC(C)C(=O)C(C)C(O)C1(C)O (centres unmarked) [Compound 1b]					20.06%	35%	22.51%	45%	30.30%	54.84%	74.17%	1.00%	decreased	significantly increased	increased	increased	decreased	significantly increased	increased	increased

Reference: article PMC4957748, “Development of Novel Erythromycin Derivatives with Inhibitory Activity against Proliferation of Tumor Cells” (PLoS ONE, 2016)
